Reference: US20250134938A1 (priority 2023, published 2025)
Values after ≈ are worked out from the molar mass of the structure shown. Read-outs that look alike come from different tables or passages of the source.

Columns and labels:
L. lactis CAB701 strain = assay: Antibiotic resistance by E-test (MIC); format: cell-based, Lactococcus lactis subsp. lactis
Description: The value at the end of the strip pointed by the inhibitory ring was determined as the minimum inhibitory concentration (MIC).

[1] = molecular target: T1, porcine pancreatic lipase type II (Sus scrofa, UniProt P00591); assay: Inhibition of pancreatic lipase; format: biochemical; conditions: 1000 μg/mL; read-out: Pancreatic lipase inhibition rate (%)
T1 construct: purchased Sigma
T1 sequence (P00591 1-450): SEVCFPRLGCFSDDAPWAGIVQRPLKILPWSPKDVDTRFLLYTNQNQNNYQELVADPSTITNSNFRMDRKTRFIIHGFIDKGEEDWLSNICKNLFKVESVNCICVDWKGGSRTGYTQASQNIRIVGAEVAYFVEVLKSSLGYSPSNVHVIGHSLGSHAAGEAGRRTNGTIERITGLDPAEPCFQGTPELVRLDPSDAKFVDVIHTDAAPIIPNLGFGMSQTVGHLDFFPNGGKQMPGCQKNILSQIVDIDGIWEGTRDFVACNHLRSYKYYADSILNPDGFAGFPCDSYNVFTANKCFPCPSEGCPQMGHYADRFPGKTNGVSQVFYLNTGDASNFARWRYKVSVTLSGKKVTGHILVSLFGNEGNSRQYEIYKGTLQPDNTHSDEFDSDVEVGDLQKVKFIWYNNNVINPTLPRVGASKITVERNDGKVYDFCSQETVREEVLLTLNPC
Description: 50 mg of porcine pancreatic lipase type II (Sigma) was suspended in 10 mL of 10 mM Tris-HCl buffer adjusted to pH 8.0, vortexed for 15 minutes, and centrifuged at 4000 rpm for 10 minutes at 18° C. The supernatant was used as an enzyme solution. As a substrate, p-nitrophenyl butyrate (Sigma-Aldrich (Schnelldorf, Germany)) dissolved in acetonitrile to 10 mM was used. […] Tertiary distilled water was used as a negative control group. […] After adding 10 μL of a substrate solution, followed by reaction for 5 minutes at 37° C., absorbance was measured using a microplate reader at 405 nm, which is the maximum absorbance of p-nitrophenol. Pancreatic lipase inhibition rate (%)=[(negative control absorbance-sample absorbance)/negative control absorbance]×100

[2] = Lactococcus lactis, CAB701STRAIN, E-test, MRS agar, 37° C., 72 hours, read-out: MIC

| Compound | Evaluation (L. lactis CAB701 strain) | MIC (L. lactis CAB701 strain; [2]) | Evaluation (L. lactis CAB701 strain; MIC against EFSA cut-off value) | also measured |
| --- | --- | --- | --- | --- |
| CC1(C)S[C@@H]2[C@H](NC(=O)[C@H](N)c3ccccc3)C(=O)N2[C@H]1C(=O)O [Ampicillin] | Allowed | 0.094 µg/mL (≈ 0.269 µM) | – | – |
| O=C(N[C@H](CO)[C@H](O)c1ccc([N+](=O)[O-])cc1)C(Cl)Cl [Chloramphenicol] | Allowed | 1.5 µg/mL (≈ 4.64 µM) | – | – |
| CCC[C@@H]1C[C@@H](C(=O)N[C@@H]([C@H]2O[C@H](SC)[C@H](O)[C@@H](O)[C@H]2O)[C@H](C)Cl)N(C)C1 [Clindamycin] | Allowed | 0.25 µg/mL (≈ 0.588 µM) | – | – |
| CC[C@H]1OC(=O)[C@H](C)[C@@H](O[C@H]2C[C@@](C)(OC)[C@@H](O)[C@H](C)O2)[C@H](C)[C@@H](O[C@@H]2O[C@H](C)C[C@H](N(C)C)[C@H]2O)[C@](C)(O)C[C@@H](C)C(=O)[C@H](C)[C@@H](O)[C@]1(C)O [Erythromycin] | Allowed | – | – | – |
| NC[C@H]1O[C@H](O[C@H]2[C@H](O)[C@@H](O[C@H]3O[C@H](CO)[C@@H](O)[C@H](N)[C@H]3O)[C@H](N)C[C@@H]2N)[C@H](O)[C@@H](O)[C@@H]1O [Kanamycin] | Allowed | 8 µg/mL (≈ 16.5 µM) | – | – |
| [H]/N=C(/N)N[C@H]1[C@H](O)[C@@H](O)[C@H](O[C@@H]2O[C@@H](C)[C@](O)(C=O)[C@H]2O[C@@H]2O[C@@H](CO)[C@H](O)[C@@H](O)[C@@H]2NC)[C@@H](N/C(N)=N\[H])[C@@H]1O [Streptomycin] | Allowed | 16 µg/mL (≈ 27.5 µM) | – | – |
| CN(C)[C@@H]1C(O)=C(C(N)=O)C(=O)[C@@]2(O)C(O)=C3C(=O)c4c(O)cccc4[C@@](C)(O)[C@H]3C[C@@H]12 [Tetracycline] | – | 0.094 µg/mL (≈ 0.212 µM) | Allowed | – |
| CN[C@H](CC(C)C)C(=O)N[C@H]1C(=O)N[C@@H](CC(N)=O)C(=O)N[C@H]2C(=O)N[C@H]3C(=O)N[C@H](C(=O)N[C@H](C(=O)O)c4cc(O)cc(O)c4-c4cc3ccc4O)[C@H](O)c3ccc(c(Cl)c3)Oc3cc2cc(c3O[C@@H]2O[C@H](CO)[C@@H](O)[C@H](O)[C@H]2O[C@H]2C[C@](C)(N)[C@H](O)[C@H](C)O2)Oc2ccc(cc2Cl)[C@H]1O [Vancomycin] | – | – | Allowed | MIC (L. lactis CAB701 strain; Lactococcus lactis, CAB701STRAIN, 72 h): 0.38 µg/mL (≈ 0.262 µM) |
| CCCCCCCCCCC[C@@H](C[C@@H]1OC(=O)[C@H]1CCCCCC)OC(=O)[C@H](CC(C)C)NC=O [orlistat] | – | – | – | inhibition at 1000 µg/mL (stock) [1]: 28.6 ± 6.2% |
| Gentamicin | – | – | Allowed | minimum inhibitory concentration (MIC) (L. lactis CAB701 strain; E-test): 3 µg/mL; MIC (L. lactis CAB701 strain; E-test, MRS agar, 37° C., 72 hours): 3 µg/mL |
